The values below come from ChEMBL document CHEMBL1153399, “Design, synthesis and SAR studies of tripeptide analogs with the scaffold 3-phenylpropane-1,2-diamine as aminopeptidase N/CD13 inhibitors” (Bioorg Med Chem, 2009).

Structures are written as SMILES.

One assay concerns the target T1, Aminopeptidase N (Sus scrofa, UniProt P15145).
T1 sequence (P15145 whole entry): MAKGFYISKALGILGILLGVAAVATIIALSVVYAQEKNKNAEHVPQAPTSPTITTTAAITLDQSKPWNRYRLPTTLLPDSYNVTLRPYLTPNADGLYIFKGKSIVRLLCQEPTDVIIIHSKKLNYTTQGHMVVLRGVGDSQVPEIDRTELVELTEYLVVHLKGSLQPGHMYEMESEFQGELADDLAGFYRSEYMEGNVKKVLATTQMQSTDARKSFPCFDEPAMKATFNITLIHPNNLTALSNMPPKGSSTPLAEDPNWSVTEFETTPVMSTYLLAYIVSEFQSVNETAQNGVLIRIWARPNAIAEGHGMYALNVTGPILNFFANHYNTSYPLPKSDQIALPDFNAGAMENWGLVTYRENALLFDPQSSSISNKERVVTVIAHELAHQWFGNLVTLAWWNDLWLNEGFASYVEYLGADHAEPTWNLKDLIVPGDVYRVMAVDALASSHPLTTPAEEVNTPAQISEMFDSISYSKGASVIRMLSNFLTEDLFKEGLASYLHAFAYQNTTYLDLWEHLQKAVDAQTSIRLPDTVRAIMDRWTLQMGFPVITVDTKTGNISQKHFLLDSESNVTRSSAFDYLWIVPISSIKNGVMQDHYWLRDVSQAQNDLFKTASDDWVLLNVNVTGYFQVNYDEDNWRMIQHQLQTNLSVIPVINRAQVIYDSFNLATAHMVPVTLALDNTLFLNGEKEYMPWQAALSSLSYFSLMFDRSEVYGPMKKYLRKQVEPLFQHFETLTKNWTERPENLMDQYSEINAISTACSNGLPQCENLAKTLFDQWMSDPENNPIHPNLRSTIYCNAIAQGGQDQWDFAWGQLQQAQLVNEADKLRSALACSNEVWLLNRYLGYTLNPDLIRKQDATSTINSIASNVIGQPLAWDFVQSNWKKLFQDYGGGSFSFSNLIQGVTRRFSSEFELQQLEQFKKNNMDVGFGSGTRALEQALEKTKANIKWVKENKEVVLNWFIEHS
Kind of assay: Inhibition of pig kidney microsomal APN.

Another assay deals with HL-60. Put plainly: Cytotoxicity against human HL60 cells after 48 hrs by MTT assay. Conditions: HL-60, 48 h. The format is functional, cell-based.

On to `CC(C)C[C@H](NC(=O)N[C@@H](Cc1ccccc1)C(=O)NC[C@H](N)Cc1ccccc1)C(=O)O`, for which the IC50 (usually the concentration at which inhibition is half-maximal) against Aminopeptidase N worked out at 181 µM.

At Aminopeptidase N, `N[C@@H](CNC(=O)[C@H](Cc1ccccc1)NC(=O)CCCCl)Cc1ccccc1` came in with an IC50 of 693 µM. For the compound `CSCC[C@H](NC(=O)N[C@@H](CS)C(=O)NC[C@H](N)Cc1ccccc1)C(=O)O`, the IC50 on Aminopeptidase N amounted to 16.5 µM; in the assay on HL-60 it was 1180 µM.

In turn, `N[C@@H](CNC(=O)[C@H](Cc1ccccc1)NC(=O)c1ccc([N+](=O)[O-])cc1)Cc1ccccc1` showed a 50% inhibitory concentration (IC50) at Aminopeptidase N of 1390 µM. As for `NCCCC[C@H](NC(=O)N[C@@H](Cc1ccccc1)C(=O)NC[C@H](N)Cc1ccccc1)C(=O)O`, the half-maximal inhibitory concentration (IC50) on Aminopeptidase N was determined as 89.5 µM; in the assay on HL-60, 1490 µM.

In the case of `CSCC[C@H](NC(=O)N[C@@H](Cc1ccccc1)C(=O)NC[C@H](N)Cc1ccccc1)C(=O)O`, the IC50 at Aminopeptidase N came to 8.8 µM; in the assay with HL-60 it was 270 µM. In turn, `NCCC[C@H](NC(=O)N[C@@H](CS)C(=O)NC[C@H](N)Cc1ccccc1)C(=O)O` gave a half-inhibitory concentration (IC50) against Aminopeptidase N of 33.2 µM. Regarding `N[C@@H](CNC(=O)[C@H](CS)NC(=O)N[C@@H](Cc1ccccc1)C(=O)O)Cc1ccccc1`, the 50% inhibitory concentration (IC50) is 9.8 µM against Aminopeptidase N and 1060 µM in the assay with HL-60. The compound `N[C@@H](CNC(=O)[C@H](CS)NC(=O)NCC(=O)O)Cc1ccccc1` registered an IC50 against Aminopeptidase N of 174 µM.

`NCCCCCC(=O)N[C@@H](CS)C(=O)NC[C@H](N)Cc1ccccc1`: at Aminopeptidase N, half-maximal inhibition (IC50) required 202 µM. At Aminopeptidase N, `CC(C)[C@H](NC(=O)N[C@@H](Cc1ccccc1)C(=O)NC[C@H](N)Cc1ccccc1)C(=O)O` came in with a 50% inhibitory concentration (IC50) of 58.5 µM. As to `N[C@@H](CNC(=O)[C@H](Cc1ccccc1)NC(=O)c1cc([N+](=O)[O-])cc([N+](=O)[O-])c1)Cc1ccccc1`, at Aminopeptidase N, the 50% inhibitory concentration (IC50) amounted to 277 µM. On Aminopeptidase N, `N[C@@H](CNC(=O)[C@H](Cc1ccccc1)NC(=O)c1ccc(Cl)cc1Cl)Cc1ccccc1` registered an IC50 of 2260 µM. On to `COc1ccc(C(=O)N[C@@H](Cc2ccccc2)C(=O)NC[C@H](N)Cc2ccccc2)cc1`, for which the IC50 at Aminopeptidase N was 174 µM. This IC50 lies about 13-fold lower than the previous one. At Aminopeptidase N, `CC(C)C[C@H](NC(=O)N[C@@H](Cc1ccc(O)cc1)C(=O)O)C(=O)NC[C@H](N)Cc1ccccc1` showed a half-inhibitory concentration (IC50) of 107 µM. Consider `N[C@@H](CNC(=O)[C@H](Cc1ccccc1)NC(=O)N[C@H](CS)C(=O)O)Cc1ccccc1`, for which inhibition on Aminopeptidase N was half-maximal at 49.2 µM (IC50). Still for that read-out and setting: next, `CC(C)C[C@H](NC(=O)NCC(=O)O)C(=O)NC[C@H](N)Cc1ccccc1`: 3240 µM; `N[C@@H](CNC(=O)[C@H](CS)NC(=O)c1ccc(Cl)cc1Cl)Cc1ccccc1`: 1050 µM. Regarding `CC[C@H](C)[C@H](NC(=O)N[C@@H](CC(C)C)C(=O)NC[C@H](N)Cc1ccccc1)C(=O)O`, at Aminopeptidase N, inhibition was half-maximal at 148 µM (IC50). This IC50 lies about 7.1-fold lower than the previous one.

Compound `CC(C)C[C@H](NC(=O)N[C@@H](C)C(=O)O)C(=O)NC[C@H](N)Cc1ccccc1` showed an IC50 against Aminopeptidase N of 522 µM. `CC(C)C[C@H](NC(=O)CCCCCN)C(=O)NC[C@H](N)Cc1ccccc1` registered an IC50 at Aminopeptidase N of 1460 µM. In the case of `NCCCCCC(=O)N[C@@H](Cc1ccccc1)C(=O)NC[C@H](N)Cc1ccccc1`, half-maximal inhibition against Aminopeptidase N (IC50) required 1540 µM. The IC50 values of the last two compounds are within 1.5-fold of each other. As for `NCCCC[C@H](NC(=O)N[C@@H](CS)C(=O)NC[C@H](N)Cc1ccccc1)C(=O)O`, the half-maximal inhibitory concentration (IC50) was 8.6 µM against Aminopeptidase N and 290 µM in the assay on HL-60. Consider `CC(C)C[C@H](NC(=O)N[C@@H](CS)C(=O)NC[C@H](N)Cc1ccccc1)C(=O)O`, for which the figures for the IC50 on Aminopeptidase N and with HL-60 were 45 µM and 2660 µM, respectively. As to `N[C@@H](CNC(=O)[C@H](CS)NC(=O)N[C@H](CS)C(=O)O)Cc1ccccc1`, the figures for the 50% inhibitory concentration (IC50) on Aminopeptidase N and in the assay on HL-60 were 10.3 µM and 540 µM, respectively.

As to `N[C@@H](CNC(=O)[C@H](Cc1ccccc1)NC(=O)CCc1ccccc1)Cc1ccccc1`, the IC50 against Aminopeptidase N worked out at 366 µM. The compound `CC[C@H](C)[C@H](NC(=O)N[C@@H](Cc1ccccc1)C(=O)NC[C@H](N)Cc1ccccc1)C(=O)O` displayed an IC50 against Aminopeptidase N of 158 µM. `CC[C@H](C)[C@H](NC(=O)N[C@@H](CS)C(=O)NC[C@H](N)Cc1ccccc1)C(=O)O`: the concentration for half-maximal inhibition (IC50) on Aminopeptidase N came to 14.8 µM. For `CC(C)C[C@H](NC(=O)N[C@@H](CC(C)C)C(=O)NC[C@H](N)Cc1ccccc1)C(=O)O`, the IC50 on Aminopeptidase N was 142 µM. The same measure, in the same setting: next, `CSCC[C@H](NC(=O)N[C@@H](CC(C)C)C(=O)NC[C@H](N)Cc1ccccc1)C(=O)O`: 30.4 µM; `CC(C)[C@H](NC(=O)N[C@@H](CS)C(=O)NC[C@H](N)Cc1ccccc1)C(=O)O`: 58.8 µM.
